We go through two compounds from patent US20240180093A1, “GENETIC MARKERS AND SOYBEAN PLANTS WITH INCREASED TOLERANCE TO DICAMBA” (THE CURATORS OF THE UNIVERSITY OF MISSOURI, priority 2022, published 2024).

For series [1] the following is noted: cited from earlier work.
For series [2], the system named is soybean accessions. To be noted: for Mean off-target dicamba damage score: 1 to 5 scale. From the text:
A total of 382 genetically diverse soybean accessions with maturity groups (MG) ranging from MG 3 to 5 were used in this study. These comprise a subset of the USDA Soybean Germplasm Collection and originated from […], including Algeria (2), China (226), Costa Rica (1), Georgia (2), Indonesia (1), Japan (38), Nepal (1), North Korea (20), Russia (5), South Africa (1), South Korea (32), Taiwan (3), United States (40), and Vietnam (5). Five accessions have unknown origins. The USDA Soybean Germplasm Collection was genotyped with the SoySNP50K BeadChip.
Field trials were conducted in three environments for two years (2020-2021) using a two-replicate randomized complete block design in Portageville, MO (36°23′44.2″N lat; 89°36′52.3″W long) and Clarkton, MO (36°29′14.8″N lat; 89°57′39.0″W long). Each plot consisted of a single 2.13 m long row spaced 0.76 m apart.
Each year, genotypes were visually assessed for off-target dicamba damage once in the early reproductive stage between R1 to R3 (approximately […]). Lines were rated on a 1 to 5 scale with 0.5 increments.
Adjusted means across environments were calculated using the function ‘ls_means’ of the R package ‘lmerTest’ (available at https://www.r-project.org/) based on a mixed-effects linear model conducted with the package ‘lme4’. The model included the fixed effect of genotype, the random interaction between genotype and environment (G×E), the random effect of environment, and the nested random effect of replication within the environment. To measure the consistency and inter-relatedness of the damage ratings across environments, Cronbach's alpha (α) score was calculated each year using the R package ‘psych’ (Revelle, 2021) based on Eq. 1.

Where two headings read alike, the source gives them in different places.

On to `O=C(O)CNCP(=O)(O)O` [glyphosate, N-(phosphonomethyl)glycine], for which the water solubility entry in series [1] is reported as “high water solubility”.

For `COc1c(Cl)ccc(Cl)c1C(=O)O` [dicamba, 3,6-dichloro-2-methoxybenzoic acid], the “Mean off-target dicamba damage score” value in series [2] (environment 2020-Clarkton) is given as 2.70; in series [2] (environment 2021-Clarkton), 2.80; in series [2] (environment 2021-LeeFarm), 2.60; in series [2] (overall, three environments 2020-2021, 382 accessions) it was 2.70. Further, the average damage in series [2] (accession PI 88788) is recorded as 3.5; in series [2] (accession PI 342434 (Japan)) it was 1.5; in series [2] (accession PI 424005 (South Korea)) it was 1.2; in series [2] (accession PI 424038-B (South Korea)) it was 1.3; in series [2] (accession PI 547862 (L83-570, United States)) it was 4.1; in series [2] (accession PI 552538 (Dunbar, United States)), 4.2. Besides, the average damage in series [2] (accession PI 561701 (G88-20092, United States)) was 1.4; in series [2] (accession PI 597387 (Pana, United States)), 4.5; in series [2] (accession PI 598124 (Maverick, United States)), 4.3; in series [2] (accession PI 603497 (China)), 1.4; in series [2] (accession PI 603675 (China)), 4.5; in series [2] (accessions derived from Asia), 2.6. The average damage is 3.0 in series [2] (accessions derived from the Americas); 2.7 in series [2] (accessions from China); 3.1 in series [2] (accessions from Costa Rica); 2.6 in series [2] (accessions from Japan); 2.5 in series [2] (accessions from South Korea); 2.3 in series [2] (accessions from the United States). Also, the average damage in series [2] (accessions of maturity group MG 3) amounted to 2.8; in series [2] (accessions of maturity group MG 4), 2.7; in series [2] (accessions of maturity group MG 5), 2.5. Moreover, the “mean score of dicamba damage” value amounted to 1.58 in series [2] (genotypes carrying all three favorable alleles (ss715605561, ss715635349, ss715632413)) and 2.90 in series [2] (genotypes carrying all three unfavorable alleles (ss715605561, ss715635349, ss715632413)).
